Measured values from patent US20170014375A1, “PHARMACEUTICAL COMPOSITION COMPRISING EFFECTIVE DOSE OF POMIFERIN FOR TREATING CANCERS” (Macau University of Science and Technology, priority 2015, published 2017).

What was measured:
[1] = tested on: HCT116 p53+/− (heterozygous) isogenic colon cancer cells; assay: MTT cytotoxicity assay, HCT116 p53+/−; type: cell-based; details: Homo sapiens, HCT-116, 72 h, 3 days, read-out: Means of IC50
Method: (§1) The test compound of pomiferin is dissolved in DMSO at a final concentration of 100 mmol/L and stored at −20° C. Cytotoxicity is assessed using the 3-(4,5-dimethylthiazol-2-yl)-2,5-diphenyltetrazolium bromide assay as previously described^29. 4000 of drug-resistant HCT-116 p53+/+, HCT-116 p53−/− and HCT-116 p53−/− isogenic colon cancer cells are seeded on 96-well plates per well. After overnight pre-incubation, the cells are exposed to different concentrations of pomiferin (namely 100, 50, 25, 12.5, 6.25, 3.125, 1.5625, 0.78, 0.39, 0.195, 0.079, 0.039 mol/L) for 3 days. Subsequently, 10 μL of MTT reagents is added to each well and incubated at 37° C. for 4 hours, followed by the addition of 100 μL solubilization buffer (10% SDS in 0.01 mol/L HCl) and overnight incubation. Absorbance at 585 nm is determined from each well on the following day. The percentage of cell viability is calculated using the following formula: Cell viability (%)=Cells numbertreated/Cells numberDMSO control×100. Data is obtained from three independent experiments.

[2] = tested on: HCT-116 p53−/− isogenic colon cancer cells; assay: MTT cytotoxicity assay, HCT116 p53−/−; type: cell-based; details: Homo sapiens, HCT-116, 72 h, HCT116 p53−/− (p53-deficient), 3 days, read-out: Means of IC50
Method: as §1

[3] = tested on: HepG2 (human liver cancer) cells; assay: MTT cytotoxicity assay, HepG2; type: cell-based; details: 72 h, 3 days, read-out: Means of IC50
Method: (§2) Pomiferin is dissolved in DMSO at a final concentration of 100 mmol/L and stored at −20° C. Cytotoxicity is assessed using the 3-(4,5-dimethylthiazol-2-yl)-2,5-diphenyltetrazolium bromide assay. 4000-8000 HeLa (human cervical cancer), MCF-7 (human breast cancer), HepG2 and Hep3B (human liver cancer), H1299 and A549 (human lung cancer), LNCap (human prostate cancer) and LLC-1 (mouse Lewis lung carcinoma) cells are seeded on 96-well plates per well. After overnight pre-incubation, the cells are exposed to different concentrations of pomiferin ([…]) for 3 days. Subsequently, 10 μL of MTT reagents is added to each well and incubated at 37° C. for 4 hours followed by the addition of 100 μL solubilization buffer (10% SDS in 0.01 mol/L HCl) and overnight incubation. Absorbance at 585 nm is determined from each well the next day. The percentage of cell viability is calculated using the following formula: Cell viability (%)=Cells number treated/Cells number DMSO control×100. Data are obtained from three independent experiments.

Bax-Bak wild-type MEFs = assay: Annexin V/PI flow cytometry cell death, Bax-Bak wild-type MEFs; type: cell-based, mouse; details: 5 μM, 24 h
Method: Cell death is measured using an annexin V staining kit (BD Biosciences, San Jose, Calif., USA). Briefly, Bax-Bak wild-type and Bax-Bak DKO MEFs are treated with the 5 μM pomiferin for 24 h. Cells are then harvested and analysed by multiparametric flow cytometry using FITC-Annexin V and Propidium iodide staining (BD Biosciences, San Jose, Calif., USA) according to the manufacturer's instructions. Flow cytometry is then carried out using a FACSCalibur flow cytometer (BD Biosciences, San Jose, Calif., USA). Data acquisition and analysis is performed with CellQuest (BD Biosciences, San Jose, Calif., USA). Data are obtained from three independent experiments.

[4] = tested on: Atg7 wild-type (Atg7+/+) mouse embryonic fibroblasts; assay: Endogenous autophagic LC3 puncta, Atg7 wild-type MEFs; type: cell-based; details: 2 μM, FIG. 6A
Method: Endogenous LC3 puncta formation is quantified as previously described^2. In brief, both Atg7 wild-type and deficient mouse embryonic fibroblasts (MEFs) grown on coverslips in a 6-well plate are treated with indicated concentrations of pomiferin. Both Atg7 wild-type and deficient mouse embryonic fibroblasts are then fixed in 4% paraformaldehyde for 20 minutes at room temperature and then rinsed with PBS. After washing with PBS, the cells are then incubated with anti-LC3 (1:200) in TBST (100 mM Tris HCl, pH 7.5, 150 mM NaCl, 0.05% Tween 20 and 5% BSA) overnight at 4. After washing with PBS, the cells are incubated with anti-mouse secondary antibody (TRITC) 1:200 in TBST containing 5% BSA at 37 for 1 hrs in the dark. The coverslips are then mounted with FluorSave™ mounting media (Calbiochem, San Diego, Calif., USA) for fluorescence imaging and localization of LC3 autophagosomes are captured under the API Delta Vision Live-cell Imaging System (Applied Precision Inc., GE Healthcare Company, Washington, USA). To quantify for autophagy, the percentage of cells with punctate TRITC-LC3 fluorescence is calculated by counting the number of the cells with punctate TRITC-LC3 fluorescence in TRITC-positive cells. A minimum of 150 cells from 3 randomly selected fields is scored.

[5] = tested on: panel of human and mouse cancer cells; assay: MTT cytotoxicity assay, panel of human and mouse cancer cells; type: cell-based; details: 72 hours, read-out: mean IC50 value range over the panel
Method: as §2

[6] = tested on: caspase-7 deficient (caspase 7KO) mouse embryonic fibroblasts; assay: MTT cytotoxicity assay, caspase 7KO MEFs; type: cell-based; details: Fibroblast, 72 h, 3 days, read-out: Means of IC50
Method: as §1, with “2500” for “4000”, “caspase wild-type (caspase WT), caspase-3 deficient (caspase 3KO), caspase-7 deficient (caspase 7KO), caspase-3/-7 deficient (caspase 3/7 DKO), caspase-8 deficient (caspase 8KO), Bax-Bak wild-type (Bak-Bak WT)” for “drug-resistant HCT-116 p53+/+, HCT-116 p53−/−”, “Bax-Bak double knock out (Bak-Bak DKO) mouse embryonic fibroblasts (MEFs)” for “HCT-116 p53−/− isogenic colon cancer cells”, “μmol/L)” for “mol/L)”

`CC(C)=CCc1c2c(c3occ(-c4ccc(O)c(O)c4)c(=O)c3c1O)C=CC(C)(C)O2` [pomiferin] was tested, and the IC50 [1] was 5.58 µM, the IC50 [2] was 6.12 µM and the IC50 [3] was 13.6 µM. For the same compound, the cell death (Bax-Bak wild-type MEFs) was ~40%, the TRITC-LC3 puncta formation [4] was “induce TRITC-LC3 puncta formation” and the IC50 [5] was 3.82 to 20.3 µM. It also gave an IC50 [6] of 3.95 µM.
